Experimental data from patent US20190071416A1, “COMPOUNDS FOR TREATMENT OF CANCER AND EPIGENETICS” (Agency For Science, Technology and Research, priority 2015, published 2019).

Molecular target: T1, SMYD3 (Homo sapiens, UniProt Q9H7B4)
T1 sequence (Q9H7B4 1-428): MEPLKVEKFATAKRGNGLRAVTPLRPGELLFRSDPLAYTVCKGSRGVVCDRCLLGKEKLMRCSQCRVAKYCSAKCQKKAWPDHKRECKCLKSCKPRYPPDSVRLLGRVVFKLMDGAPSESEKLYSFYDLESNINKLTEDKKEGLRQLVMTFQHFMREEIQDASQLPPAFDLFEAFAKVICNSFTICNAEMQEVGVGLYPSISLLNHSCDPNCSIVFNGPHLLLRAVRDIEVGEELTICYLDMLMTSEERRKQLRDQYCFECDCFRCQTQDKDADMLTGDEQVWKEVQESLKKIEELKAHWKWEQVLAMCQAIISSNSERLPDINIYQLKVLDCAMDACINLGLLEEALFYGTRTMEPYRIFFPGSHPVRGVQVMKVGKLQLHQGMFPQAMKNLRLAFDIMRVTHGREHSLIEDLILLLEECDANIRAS
Experiment: SMYD3 biochemical assay (MTase-Glo, MAP3K2 peptide substrate)
Conditions: Table 3; MTase assay, MAP3K2 peptide substrate; read-out: IC50
Procedure, shortened: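 Methylation of MAP3K2 peptide (10 µM final) with SAM (1.0 µM final) by SMYD3, 30 min at room temperature. SAH formed was enzymatically converted to ATP and detected as luminescence with MTase-Glo reagents; IC50 by non-linear regression.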

Compound: CCCOC(=O)N1CCN(C(=O)c2ccc3c(Cl)cc(-c4cnc5c(cnn5C)c4)nc3c2)CC1 [B174, Propyl 4-(4-chloro-2-(1-methyl-1H-pyrazolo[3,4-b]pyridin-5-yl)quinoline-7-carbonyl)piperazine-1-carboxylate]
- IC50: 470 nM

Compound: CCCOC(=O)N1CCN(C(=O)c2ccc3c(Cl)c4c(nc3c2)CCCC4)C(C)C1 (stereo not drawn) [A031, Propyl 4-(9-chloro-5,6,7,8-tetrahydroacridine-3-carbonyl)-3-methylpiperazine-1-carboxylate]
- IC50: 150 nM

Compound: CCCOC(=O)N1CCN(C(=O)c2ccc3c(Cl)c4c(nc3c2)CC(c2ccncc2)CC4)CC1 (stereo not drawn) [A058, Propyl 4-(9-chloro-6-(pyridin-4-yl)-5,6,7,8-tetrahydroacridine-3-carbonyl)piperazine-1-carboxylate]
- IC50: 190 nM

Compound: CCCOC(=O)N1CCN(C(=O)c2ccc3c(Cl)cc(-c4ccc(O)c(C)c4)nc3c2)[C@@H](C)C1 [B225, Propyl (S)-4-(4-chloro-2-(4-hydroxy-3-methylphenyl)quinoline-7-carbonyl)-3-methylpiperazine-1-carboxylate]
- IC50: 230 nM

Compound: CCCOC(=O)N1CCN(C(=O)c2ccc3c(Cl)c4c(nc3c2)CC(c2ccnc(C)c2)CC4)CC1 (stereo not drawn) [A104, Propyl 4-(9-chloro-6-(2-methylpyridin-4-yl)-5,6,7,8-tetrahydroacridine-3-carbonyl)piperazine-1-carboxylate]
- IC50: 83 nM

Compound: CCCOC(=O)N1CCN(C(=O)c2ccc3c(Cl)c4c(nc3c2)CC(c2cc(C)ccn2)CC4)CC1 (stereo not drawn) [A132, Propyl 4-(9-chloro-6-(4-methylpyridin-2-yl)-5,6,7,8-tetrahydroacridine-3-carbonyl)piperazine-1-carboxylate]
- IC50: 210 nM

Compound: CCCOC(=O)N1CCN(C(=O)c2ccc3c(Cl)c4c(nc3c2)CC(c2cncnc2)CC4)CC1 (stereo not drawn) [A057, Propyl 4-(9-chloro-6-(pyrimidin-5-yl)-5,6,7,8-tetrahydroacridine-3-carbonyl)piperazine-1-carboxylate]
- IC50: 310 nM

Compound: CCCOC(=O)N1CCN(C(=O)c2ccc3c(Cl)cc(-c4ccc(C(=O)NC)cc4)nc3c2)C[C@@H]1C [B189, Propyl (S)-4-(4-chloro-2-(4-(methylcarbamoyl)phenyl)quinoline-7-carbonyl)-2-methylpiperazine-1-carboxylate]
- IC50: 69 nM

Compound: CCCOC(=O)N1CCN(C(=O)c2ccc3c(Cl)cc(-c4ccc(CN=[N+]=[N-])cc4)nc3c2)CC1 [B264, Propyl 4-(2-(4-(azidomethyl)phenyl)-4-chloroquinoline-7-carbonyl)piperazine-1-carboxylate]
- IC50: 84 nM

Compound: CCCOC(=O)N1CCN(C(=O)c2ccc3c(Cl)c4c(nc3c2)CCC(CCN)C4)[C@@H](C)C1 (stereo partly drawn) [A081, Propyl (3S)-4-(7-(2-aminoethyl)-9-chloro-5,6,7,8-tetrahydroacridine-3-carbonyl)-3-methylpiperazine-1-carboxylate]
- IC50: 150 nM

Compound: CCCOC(=O)N1CCN(C(=O)c2ccc3c(Cl)cc(-c4ccc5[nH]nc(C)c5c4)nc3c2)C[C@H]1C [B197, Propyl (R)-4-(4-chloro-2-(3-methyl-1H-indazol-5-yl)quinoline-7-carbonyl)-2-methylpiperazine-1-carboxylate]
- IC50: 100 nM

Compound: CCCOC(=O)N1CCN(C(=O)c2ccc3c(Cl)cc(-c4ccc(C5(N)CC5)cc4)nc3c2)C[C@H]1C [B281, Propyl (R)-4-(2-(4-(1-aminocyclopropyl)phenyl)-4-chloroquinoline-7-carbonyl)-2-methylpiperazine-1-carboxylate]
- IC50: 12 nM

Compound: CCCOC(=O)N1CCN(C(=O)c2ccc3c(Cl)cc(-c4ccc(C)c(CO)c4)nc3c2)CC1 [B159, Propyl 4-(4-chloro-2-(3-(hydroxymethyl)-4-methylphenyl)quinoline-7-carbonyl)piperazine-1-carboxylate]
- IC50: 120 nM

Compound: CCCOC(=O)N1CCN(C(=O)c2ccc3c(Cl)cc(-c4ccc(CN(C)C)s4)nc3c2)CC1 [B126, Propyl 4-(4-chloro-2-(5-((dimethylamino)methyl)thiophen-2-yl)quinoline-7-carbonyl)piperazine-1-carboxylate]
- IC50: 89 nM

Compound: CCCOC(=O)N1CCN(C(=O)c2ccc3c(Cl)cc(Nc4ccccc4)nc3c2)CC1 [B040, Propyl 4-(4-chloro-2-(phenylamino)quinoline-7-carbonyl)piperazine-1-carboxylate]
- IC50: 3200 nM

Compound: CCCOC(=O)N1CCN(C(=O)c2ccc3c(Cl)c4c(nc3c2)CC(c2nccs2)CC4)C[C@H]1C (stereo partly drawn) [A129, Propyl (2R)-4-(9-chloro-6-(thiazol-2-yl)-5,6,7,8-tetrahydroacridine-3-carbonyl)-2-methylpiperazine-1-carboxylate]
- IC50: 94 nM

Compound: CCCOC(=O)N1CCN(C(=O)c2ccc3c(Cl)c4c(nc3c2)CCCC4)CC1CC (stereo not drawn) [A030, Propyl 4-(9-chloro-5,6,7,8-tetrahydroacridine-3-carbonyl)-2-ethylpiperazine-1-carboxylate]
- IC50: 630 nM

Compound: CCCOC(=O)N1CCN(C(=O)c2ccc3c(Cl)cc(C4(C)CC4)nc3c2)C[C@H]1C [B109, Propyl (R)-4-(4-chloro-2-(1-methylcyclopropyl)quinoline-7-carbonyl)-2-methylpiperazine-1-carboxylate]
- IC50: 380 nM

Compound: CCCOC(=O)N1C2CCCC1CN(C(=O)c1ccc3c(Cl)cc(-c4ccccc4)nc3c1)C2 [B081, Propyl 3-(4-chloro-2-phenylquinoline-7-carbonyl)-3,9-diazabicyclo[3.3.1]nonane-9-carboxylate]
- IC50: 470 nM

Compound: CCCOC(=O)N1CCN(C(=O)c2ccc3c(Cl)c4c(nc3c2)CC(c2ccccn2)CC4)CC1 (stereo not drawn) [A053, Propyl 4-(9-chloro-6-(pyridin-2-yl)-5,6,7,8-tetrahydroacridine-3-carbonyl)piperazine-1-carboxylate]
- IC50: 240 nM

Compound: CCCOC(=O)N1CCN(C(=O)c2ccc3c(Cl)c4c(nc3c2)CCCC4)CC12CC2 [A036, Propyl 7-(9-chloro-5,6,7,8-tetrahydroacridine-3-carbonyl)-4,7-diazaspiro[2.5]octane-4-carboxylate]
- IC50: 6700 nM

Compound: CCCOC(=O)N1CCN(C(=O)c2ccc3c(Cl)c4c(nc3c2)CC(c2ccnc(C)c2)CC4)[C@H](C)C1 (stereo partly drawn) [A114, Propyl (3R)-4-(9-chloro-6-(2-methylpyridin-4-yl)-5,6,7,8-tetrahydroacridine-3-carbonyl)-3-methylpiperazine-. 1-carboxylate]
- IC50: 110 nM

Compound: C[C@H]1CN(C(=O)OCCF)CCN1C(=O)c1ccc2c(Cl)cc(C3CC3)nc2c1 [B260, 2-Fluoroethyl (S)-4-(4-chloro-2-cyclopropylquinoline-7-carbonyl)-3-methylpiperazine-1-carboxylate]
- IC50: 4900 nM

Compound: CCCOC(=O)N1CCN(C(=O)c2ccc3c(Cl)cc(-c4ccc(O)c(F)c4)nc3c2)C[C@@H]1C [B192, Propyl (S)-4-(4-chloro-2-(3-fluoro-4-hydroxyphenyl)quinoline-7-carbonyl)-2-methylpiperazine-1-carboxylate]
- IC50: 75 nM

Compound: CCCOC(=O)N1CCN(C(=O)c2ccc3c(Cl)c4c(nc3c2)CC(c2ccnc(C(N)=O)c2)CC4)CC1 (stereo not drawn) [A139, Propyl 4-(6-(2-carbamoylpyridin-4-yl)-9-chloro-5,6,7,8-tetrahydroacridine-3-carbonyl)piperazine-1-carboxylate]
- IC50: 350 nM

Compound: CCCOC(=O)N1CCN(C(=O)c2ccc3c(Cl)cc(-c4ccc(CO)c(F)c4)nc3c2)CC1 [B257, Propyl 4-(4-chloro-2-(3-fluoro-4-(hydroxymethyl)phenyl)quinoline-7-carbonyl)piperazine-1-carboxylate]
- IC50: 150 nM

Compound: CCCOC(=O)N1CCN(C(=O)c2ccc3c(Cl)cc(-c4ccc(F)c(C(=O)NC)c4)nc3c2)CC1 [B152, Propyl 4-(4-chloro-2-(4-fluoro-3-(methylcarbamoyl)phenyl)quinoline-7-carbonyl)piperazine-1-carboxylate]
- IC50: 410 nM

Compound: CCCOC(=O)N1CCN(C(=O)c2ccc3c(Cl)c(C)c(-c4ccc(C)cc4)nc3c2)[C@@H](C)C1 [B024, Propyl (S)-4-(4-chloro-3-methyl-2-(p-tolyl)quinoline-7-carbonyl)-3-methylpiperazine-1-carboxylate]
- IC50: 670 nM

Compound: Cn1cc(C(=O)N2CCN(C(=O)c3ccc4c(Cl)cc(-c5ccccc5)nc4c3)CC2)nn1 [D007, (4-Chloro-2-phenylquinolin-7-yl)(4-(1-methyl-1H-1,2,3-triazole-4-carbonyl)piperazin-1-yl)methanone]
- IC50: 83 nM

Compound: C[C@@H]1CN(C(=O)c2ccc3c(Cl)cc(-c4cc(F)c(O)c(F)c4)nc3c2)CCN1C(=O)OCCCF [B235, 3-Fluoropropyl (R)-4-(4-chloro-2-(3,5-difluoro-4-hydroxyphenyl)quinoline-7-carbonyl)-2-methylpiperazine-1-carboxylate]
- IC50: 230 nM

Compound: CCCOC(=O)N1CCN(C(=O)c2ccc3c(Cl)c4c(nc3c2)CC(CNC(=N)N)CC4)[C@@H](C)C1 (stereo partly drawn) [A090, Propyl (3S)-4-(9-chloro-6-(guanidinomethyl)-5,6,7,8-tetrahydroacridine-3-carbonyl)-3-methylpiperazine-1-carboxylate]
- IC50: 350 nM

Compound: CCCOC(=O)N1CCN(C(=O)c2ccc3c(Cl)cc(-c4ccc(OC)cc4)nc3c2)C[C@H]1C [B045, Propyl (R)-4-(4-chloro-2-(4-methoxyphenyl)quinoline-7-carbonyl)-2-methylpiperazine-1-carboxylate]
- IC50: 440 nM

Compound: Cc1cc(C(=O)N2C3CCCC2CN(C(=O)c2ccc4c(Cl)c5c(nc4c2)CCCC5)C3)no1 [A039, (9-Chloro-5,6,7,8-tetrahydroacridin-3-yl)(9-(5-methylisoxazole-3-carbonyl)-3,9-diazabicyclo[3.3.1]nonan-3-yl)methanone]
- IC50: 1300 nM
